Results reported in patent US20150344540A1, “NOVEL GLP-1 RECEPTOR AGONISTS WITH CHOLESTEROL EFFLUX ACTIVITY” (NOVO NORDISK A/S, priority 2012, published 2015).
Where a SMILES comes first, the peptide text is derived from it. [ ]: non-standard residue; d: D form. Aib = CC(C)(N)C(=O)O

Tested on: Mouse monocyte/macrophage cell line, RAW 264.7
Assay: Cholesterol efflux assay (3H-cholesterol, macrophage cell line)
Format: cell-based
Conditions: RAW 264.7, 4 hrs incubation, 0.1% human serum albumin; for 4 h Cholesterol Efflux Emax: ABCA1-mediated efflux

Compound	4 h Cholesterol Efflux Emax [%]	EC50 (read-out: 4 h Cholesterol Efflux EC50, ABCA1-mediated efflux (CPT-cAMP induced minus non-induced)) [nM]
CC[C@H](C)[C@H](NC(=O)[C@H](Cc1ccccc1)NC(=O)[C@H](CC(C)C)NC(=O)[C@H](CCCNC(=N)N)NC(=O)[C@@H](NC(=O)[C@H](C)NC(=O)[C@H](CCC(=O)O)NC(=O)CNC(=O)[C@H](CCC(=O)O)NC(=O)[C@H](CCSC)NC(=O)[C@H](CCC(N)=O)NC(=O)[C@H](CCCCN)NC(=O)[C@H](CO)NC(=O)[C@H](CC(C)C)NC(=O)[C@H](CC(=O)O)NC(=O)[C@H](CO)NC(=O)[C@@H](NC(=O)[C@H](Cc1ccccc1)NC(=O)[C@@H](NC(=O)CNC(=O)[C@H](CCC(=O)O)NC(=O)C(C)(C)NC(=O)[C@@H](N)Cc1c[nH]cn1)[C@@H](C)O)[C@@H](C)O)C(C)C)C(=O)N[C@@H](CCC(=O)O)C(=O)N[C@@H](Cc1c[nH]c2ccccc12)C(=O)N[C@@H](CC(C)C)C(=O)N[C@@H](CCCCN)C(=O)N[C@@H](CC(N)=O)C(=O)N[C@@H](CCCCN)C(=O)NC(C)(C)C(=O)N[C@@H](CC(C)C)C(=O)N[C@@H](CCC(=O)O)C(=O)N[C@@H](Cc1ccccc1)C(=O)N[C@@H](CC(C)C)C(=O)N[C@@H](CCC(=O)O)C(=O)N[C@@H](CC(C)C)C(=O)N[C@@H](CC(C)C)C(N)=O [Compound 12, [Aib2,Gly16,Lys29,Aib30,Leu31,Glu32,Phe33,Leu34,Glu35,Leu36,Leu371-Exendin-4-(1-37)-peptide amide] (H-H[Aib]EGTFTSDLSKQMEGEAVRLFIEWLKNK[Aib]LEFLELL-NH2; N-terminus assumed)	86	–
CC[C@H](C)[C@H](NC(=O)[C@H](Cc1ccccc1)NC(=O)[C@H](CCC(=O)O)NC(=O)[C@H](CCCNC(=N)N)NC(=O)[C@H](C)NC(=O)[C@H](CCCNC(=N)N)NC(=O)[C@H](CCCCN)NC(=O)CNC(=O)[C@H](CCC(=O)O)NC(=O)[C@H](CC(C)C)NC(=O)[C@H](Cc1ccc(O)cc1)NC(=O)[C@H](CO)NC(=O)[C@H](CO)NC(=O)[C@@H](NC(=O)[C@H](CC(=O)O)NC(=O)[C@H](CO)NC(=O)[C@@H](NC(=O)[C@H](Cc1ccccc1)NC(=O)[C@@H](NC(=O)CNC(=O)[C@H](CCC(=O)O)NC(=O)C(C)(C)NC(=O)[C@@H](N)Cc1c[nH]cn1)[C@@H](C)O)[C@@H](C)O)C(C)C)C(=O)N[C@@H](C)C(=O)N[C@@H](Cc1c[nH]c2ccccc12)C(=O)N[C@@H](CC(C)C)C(=O)N[C@H](C(=O)N[C@@H](CCC(=O)O)C(=O)N[C@@H](CCCCN)C(=O)NC(C)(C)C(=O)N[C@@H](CCCCN)C(=O)N[C@@H](CCC(=O)O)C(=O)N[C@@H](Cc1ccccc1)C(=O)N[C@@H](CC(C)C)C(N)=O)C(C)C [Compound 52, [Aib8,Lys23,Arq24,Arq26,Glu34,Lys35,Aib36,Lys37]-GLP-1-(7-37)-peptidyl-Glu-Phe-Leu amide] (H-H[Aib]EGTFTSDVSSYLEGKRAREFIAWLVEK[Aib]KEFL-NH2)	98	–
CC[C@H](C)[C@H](NC(=O)[C@H](Cc1ccccc1)NC(=O)[C@H](CCC(N)=O)NC(=O)[C@H](CCCCN)NC(=O)[C@@H](NC(=O)[C@H](C)NC(=O)[C@H](CCC(N)=O)NC(=O)CNC(=O)[C@H](CCC(=O)O)NC(=O)[C@H](CC(C)C)NC(=O)[C@H](Cc1ccc(O)cc1)NC(=O)[C@H](CO)NC(=O)[C@H](CO)NC(=O)[C@@H](NC(=O)[C@H](CC(=O)O)NC(=O)[C@H](CO)NC(=O)[C@@H](NC(=O)[C@H](Cc1ccccc1)NC(=O)[C@@H](NC(=O)CNC(=O)[C@H](CCC(=O)O)NC(=O)C(C)(C)NC(=O)[C@@H](N)Cc1c[nH]cn1)[C@@H](C)O)[C@@H](C)O)C(C)C)C(C)C)C(=O)N[C@@H](C)C(=O)N[C@@H](Cc1c[nH]c2ccccc12)C(=O)N[C@@H](CC(C)C)C(=O)N[C@H](C(=O)N[C@@H](CC(N)=O)C(=O)N[C@@H](CCCCN)C(=O)NC(C)(C)C(=O)N[C@@H](C)C(=O)N[C@@H](CCC(=O)O)C(=O)N[C@@H](Cc1ccccc1)C(=O)N[C@@H](CC(C)C)C(N)=O)C(C)C [Compound 74] (H-H[Aib]EGTFTSDVSSYLEGQAVKQFIAWLVNK[Aib]AEFL-NH2)	91	–
CC[C@H](C)[C@H](NC(=O)[C@H](Cc1ccccc1)NC(=O)[C@H](CCC(=O)O)NC(=O)[C@H](CCCCN)NC(=O)[C@@H](NC(=O)[C@H](C)NC(=O)[C@H](CCC(=O)O)NC(=O)CNC(=O)[C@H](CCC(=O)O)NC(=O)[C@H](CC(C)C)NC(=O)[C@H](Cc1ccc(O)cc1)NC(=O)[C@H](CO)NC(=O)[C@H](CO)NC(=O)[C@@H](NC(=O)[C@H](CC(=O)O)NC(=O)[C@H](CO)NC(=O)[C@@H](NC(=O)[C@H](Cc1ccccc1)NC(=O)[C@@H](NC(=O)CNC(=O)[C@H](CCC(=O)O)NC(=O)C(C)(C)NC(=O)[C@@H](N)Cc1c[nH]cn1)[C@@H](C)O)[C@@H](C)O)C(C)C)C(C)C)C(=O)N[C@@H](C)C(=O)N[C@@H](Cc1c[nH]c2ccccc12)C(=O)N[C@@H](CC(C)C)C(=O)N[C@H](C(=O)N[C@@H](CCC(=O)O)C(=O)N[C@@H](CCCCN)C(=O)N[C@@H](CC(C)C)C(=O)N[C@@H](CCCCN)C(=O)N[C@@H](CCC(=O)O)C(=O)N[C@@H](CC(C)C)C(=O)N[C@H](C(N)=O)C(C)C)C(C)C [Compound 20, [Aib8,Glu23,Val25,Glu34,Lys35,Leu36,Lys37]-GLP-1-(7-37)-peptidyl-Glu-Leu-Val amide] (H-H[Aib]EGTFTSDVSSYLEGEAVKEFIAWLVEKLKELV-NH2; N-terminus assumed)	102	560
CC[C@H](C)[C@H](NC(=O)[C@H](Cc1ccccc1)NC(=O)[C@H](CCC(=O)O)NC(=O)[C@H](CCCNC(=N)N)NC(=O)[C@@H](NC(=O)[C@H](C)NC(=O)[C@H](CCC(=O)O)NC(=O)CNC(=O)[C@H](CCC(=O)O)NC(=O)[C@H](CC(C)C)NC(=O)[C@H](Cc1ccc(O)cc1)NC(=O)[C@H](CO)NC(=O)[C@H](CO)NC(=O)[C@@H](NC(=O)[C@H](CC(=O)O)NC(=O)[C@H](CO)NC(=O)[C@@H](NC(=O)[C@H](Cc1ccccc1)NC(=O)[C@@H](NC(=O)CNC(=O)[C@H](CCC(=O)O)NC(=O)C(C)(C)NC(=O)[C@@H](N)Cc1c[nH]cn1)[C@@H](C)O)[C@@H](C)O)C(C)C)C(C)C)C(=O)N[C@@H](C)C(=O)N[C@@H](Cc1c[nH]c2ccccc12)C(=O)N[C@@H](CC(C)C)C(=O)N[C@H](C(=O)N[C@@H](CCC(=O)O)C(=O)N[C@@H](CCCNC(=N)N)C(=O)NC(C)(C)C(=O)N[C@@H](CCCCN)C(=O)N[C@@H](CCC(=O)O)C(=O)N[C@@H](Cc1ccccc1)C(=O)N[C@@H](CC(C)C)C(N)=O)C(C)C [Compound 19, [Aib8,Glu23,Val25,Arg26,Glu34,Arg35,Aib36,Lys37]-GLP-1-(7-37)-peptidyl-Glu-Phe-Leu amide] (H-H[Aib]EGTFTSDVSSYLEGEAVREFIAWLVER[Aib]KEFL-NH2)	83	–
CC[C@H](C)[C@H](NC(=O)[C@H](Cc1ccccc1)NC(=O)[C@H](CCC(=O)O)NC(=O)[C@H](CCCCN)NC(=O)[C@@H](NC(=O)[C@H](C)NC(=O)[C@H](CCC(=O)O)NC(=O)CNC(=O)[C@H](CCC(=O)O)NC(=O)[C@H](CC(C)C)NC(=O)[C@H](Cc1ccc(O)cc1)NC(=O)[C@H](CO)NC(=O)[C@H](CO)NC(=O)[C@@H](NC(=O)[C@H](CC(=O)O)NC(=O)[C@H](CO)NC(=O)[C@@H](NC(=O)[C@H](Cc1ccccc1)NC(=O)[C@@H](NC(=O)CNC(=O)[C@H](CCC(=O)O)NC(=O)C(C)(C)NC(=O)[C@@H](N)Cc1c[nH]cn1)[C@@H](C)O)[C@@H](C)O)C(C)C)C(C)C)C(=O)N[C@@H](C)C(=O)N[C@@H](Cc1c[nH]c2ccccc12)C(=O)N[C@@H](CC(C)C)C(=O)N[C@H](C(=O)N[C@@H](CCCCN)C(=O)N[C@@H](CCCCN)C(=O)NC(C)(C)C(=O)N[C@@H](CCCCN)C(=O)N[C@@H](CCC(=O)O)C(=O)N[C@@H](Cc1ccccc1)C(=O)N[C@@H](CC(C)C)C(N)=O)C(C)C [Compound 9, [Aib8,Glu23,Val25,Lys35,Aib36,Lys37]-GLP-1-(7-37)-peptidyl-Glu-Phe-Leu amide] (H-H[Aib]EGTFTSDVSSYLEGEAVKEFIAWLVKK[Aib]KEFL-NH2)	87	–
H-HGEGTFTSDVSSYLEGEAVKEFIAWLVEKVKEFLG-OH [Compound 92, [Gly8,Glu23,Val25,Glu34,Lys35,Val36,Lys37]-GLP-1-(7-37)-peptidyl-Glu-Phe-Leu-Gly]	129	–
CC[C@H](C)[C@H](NC(=O)[C@H](Cc1ccccc1)NC(=O)[C@H](CCC(=O)O)NC(=O)[C@H](CCCCN)NC(=O)[C@H](C)NC(=O)[C@H](C)NC(=O)[C@H](CCC(N)=O)NC(=O)CNC(=O)[C@H](CCC(=O)O)NC(=O)[C@H](CC(C)C)NC(=O)[C@H](Cc1ccc(O)cc1)NC(=O)[C@H](CO)NC(=O)[C@H](CO)NC(=O)[C@@H](NC(=O)[C@H](CC(=O)O)NC(=O)[C@H](CO)NC(=O)[C@@H](NC(=O)[C@H](Cc1ccccc1)NC(=O)[C@@H](NC(=O)CNC(=O)[C@H](CCC(=O)O)NC(=O)C(C)(C)NC(=O)[C@@H](N)Cc1c[nH]cn1)[C@@H](C)O)[C@@H](C)O)C(C)C)C(=O)N[C@@H](C)C(=O)N[C@@H](Cc1c[nH]c2ccccc12)C(=O)N[C@@H](CC(C)C)C(=O)N[C@H](C(=O)N[C@@H](CCCCN)C(=O)N[C@@H](CCCCN)C(=O)NC(C)(C)C(=O)N[C@@H](CCCCN)C(=O)N[C@@H](CCC(=O)O)C(=O)N[C@@H](Cc1ccccc1)C(=O)N[C@@H](CC(C)C)C(N)=O)C(C)C [Compound 47, [Aib8,Lys35,Aib36,Lys37]-GLP-1-(7-37)-peptidyl-Glu-Phe-Leu amide]	55	–
